Marks after values point to notes of the source that are not given here.
Settings: pH 2.7

Row | Compound | LogP
1 | CC(C)CSC(=O)Nc1cccc(CO/N=C(/c2ccccc2)c2noc(=O)n2C)n1 [Example 241] | 4.39 [a]
2 | C#CC(C)OC(=O)Nc1cccc(CO/N=C(/c2ccccc2)c2noc(=O)n2C)n1 (stereo not drawn) [Example 242] | 3.41 [a]
3 | Cn1c(C(=NOCc2cccc(NC(=O)OC(C)(C)C)n2)c2cccc(F)c2F)noc1=O [Example 249] | 3.94 [a]
4 | Cc1ccc(C(=NOCc2csc(NC(=O)Cc3ccccc3)n2)c2noc(=O)n2C)cc1 [Example 252] | 3.65 [a]
5 | Cn1c(C(=NOCc2cccc(NC(=O)OC(C)(C)C)n2)c2cccc(F)c2F)noc1=O [Example 254] | 4.01 [a]
6 | Cn1c(C(=NOCc2cccc(N)n2)c2ccc(F)cc2)noc1=O [Example 259] | 1.41 [a]
7 | CC(Oc1ccc(Cl)cc1)C(=O)Nc1cccc(CON=C(c2ccccc2)c2noc(=O)n2C)n1 (stereo not drawn) [Example 260] | 4.35 [a]
8 | Cn1c(C(=NOCc2cccc(NC(=O)COc3ccccc3Br)n2)c2ccccc2)noc1=O [Example 269] | 4.25 [a]
9 | CC(C)CC(C)OC(=O)Nc1cccc(CO/N=C(/c2ccccc2)c2noc(=O)n2C)n1 (stereo not drawn) [Example 273] | 4.68 [a]
10 | Cn1c(/C(=N\OCc2cccc(NC(=O)COc3ccc(Cl)cc3Cl)n2)c2ccccc2)noc1=O [Example 274] | 4.61 [a]
11 | CC(Oc1ccccc1Br)C(=O)Nc1cccc(CO/N=C(/c2ccccc2)c2noc(=O)n2C)n1 (stereo not drawn) [Example 275] | 4.53 [a]
12 | Cc1cc(Cl)ccc1OCCCC(=O)Nc1cccc(CO/N=C(/c2ccccc2)c2noc(=O)n2C)n1 [Example 277] | 4.73 [a]
13 | CCCOC(=S)Nc1cccc(CO/N=C(/c2ccccc2)c2noc(=O)n2C)n1 [Example 283] | 4.11 [a]
14 | Cc1ccc(OC(C)C(=O)Nc2cccc(CO/N=C(/c3ccccc3)c3noc(=O)n3C)n2)cc1 (stereo not drawn) [Example 287] | 4.35 [a]
15 | Cn1c(/C(=N\OCc2cccc(NC(=O)OCCCC(F)(F)C(F)(F)F)n2)c2ccccc2)noc1=O [Example 293] | 4.29 [a]
16 | Cn1c(/C(=N\OCc2cccc(NC(=O)c3ccccc3Oc3ccccc3)n2)c2ccccc2)noc1=O [Example 294] | 4.76 [a]
17 | Cn1c(/C(=N\OCc2cccc(NC(=O)OCCc3ccccc3Br)n2)c2ccccc2)noc1=O [Example 298] | 4.66 [a]
18 | CC(OC(=O)Nc1cccc(CO/N=C(/c2ccccc2)c2noc(=O)n2C)n1)C(C)(C)C (stereo not drawn) [Example 305] | 4.56 [a]
19 | Cn1c(/C(=N\OCc2cccc(NC(=O)COc3cccc(F)c3)n2)c2ccccc2)noc1=O [Example 311] | 3.78 [a]
20 | Cn1c(/C(=N\OCc2csc(NC(=O)COc3cccc(Br)c3)n2)c2ccccc2)noc1=O [Example 314] | 3.94 [a]
21 | Cn1c(/C(=N\OCc2csc(NC(=O)COc3ccccc3)n2)c2ccccc2)noc1=O [Example 315] | 3.51 [a]
22 | Cc1ccc(/C(=N/OCc2csc(NC(=O)C(C)Oc3ccccc3)n2)c2noc(=O)n2C)cc1 (stereo not drawn) [Example 319] | 3.99 [a]
23 | CCCCSC(=O)Nc1cccc(CO/N=C(/c2ccccc2)c2noc(=O)n2C)n1 [Example 320] | 4.41 [a]
24 | Cc1ccc(/C(=N/OCc2csc(N)n2)c2noc(=O)n2C)cc1 [Example 326] | 1.82 [a]
25 | COc1ccc(/C(=N/OCc2cccc(NC(=O)OC(C)(C)C)n2)c2noc(=O)[nH]2)cc1 [Example 333] | 3.69 [a]
26 | Cc1cccc(OCC(=O)Nc2cccc(CO/N=C(/c3ccccc3)c3noc(=O)n3C)n2)c1 [Example 334] | 4.07 [a]
27 | CC(Oc1ccccc1)C(=O)Nc1nc(CO/N=C(/c2cccc(F)c2)c2noc(=O)n2C)cs1 (stereo not drawn) [Example 338] | 3.76 [a]

Row | Compound | LogP
28 | Cc1ccc(C(=NOCc2csc(NC(=O)OC3CCCCC3)n2)c2noc(=O)n2C)cc1 [Example 339] | 4.48 [a]
29 | Cn1c(/C(=N\OCc2cccc(NC(=O)OCCc3ccc(Cl)cc3)n2)c2ccccc2)noc1=O [Example 349] | 4.53 [a]
30 | CCCCC(C)(C)OC(=O)Nc1cccc(CO/N=C(/c2ccccc2)c2noc(=O)n2C)n1 [Example 353] | 5.1 [a]
31 | Cc1cccc(OCC(=O)Nc2nc(CO/N=C(/c3ccccc3)c3noc(=O)n3C)cs2)c1 [Example 356] | 3.8 [a]
32 | Cn1c(/C(=N\OCc2cccc(NC(=O)OCCc3cccc(Cl)c3)n2)c2ccccc2)noc1=O [Example 359] | 4.51 [a]
33 | Cc1ccc(C(=NOCc2csc(N(C)C=O)n2)c2noc(=O)n2C)cc1 [Example 360] | 3.06 [a]
34 | Cn1c(/C(=N\OCc2csc(NC(=O)COc3cccc(Cl)c3)n2)c2ccccc2)noc1=O [Example 368] | 3.87 [a]
35 | CCCCC(=O)Nc1nc(CO/N=C(/c2cccc(F)c2)c2noc(=O)n2C)cs1 [Example 370] | 3.48 [a]
36 | Cn1c(/C(=N\OCc2cccc(NC(=O)COc3cccc(Br)c3)n2)c2ccccc2)noc1=O [Example 382] | 4.2 [a]
37 | CCCCSC(=S)Nc1cccc(CO/N=C(/c2ccccc2)c2noc(=O)n2C)n1 [Example 385] | 4.8 [a]
38 | Cc1cccc(/C(=N/OCc2cccc(NC(=O)c3cccc(F)c3)n2)c2noc(=O)n2C)c1 [Example 391] | 3.99 [a]
39 | COc1ccc(C(=O)Nc2nc(CO/N=C(/c3ccccc3)c3noc(=O)n3C)cs2)cc1 [Example 393] | 3.48 [a]
40 | Cc1ccc(C2(C(=O)Nc3cccc(CO/N=C(/c4ccccc4)c4noc(=O)n4C)n3)CC2)cc1 [Example 397] | 4.76 [a]
41 | Cc1ccccc1OC(C)C(=O)Nc1cccc(CO/N=C(/c2ccccc2)c2noc(=O)n2C)n1 (stereo not drawn) [Example 398] | 4.46 [a]
42 | COc1cccc(C(=NOCc2cccc(NC(=O)c3cccc(F)c3)n2)c2noc(=O)n2C)c1 [Example 399] | 3.72 [a]
43 | Cn1c(/C(=N\OCc2cccc(NC(=O)COc3ccc(Cl)cc3)n2)c2ccccc2)noc1=O [Example 402] | 4.1 [a]
44 | CCCCOC(=S)Nc1nc(CO/N=C(/c2ccccc2)c2noc(=O)n2C)cs1 [Example 410] | 4.56 [a]
45 | Cn1c(/C(=N/OCc2cccc(N)n2)c2cccc(F)c2F)noc1=O [Example 416] | 1.26 [a]
46 | Cn1c(/C(=N\OCc2cccc(NC(=O)OC3CCCCC3)n2)c2cccc(F)c2F)noc1=O [Example 417] | 4.46 [a]
47 | CCCCC(=O)Nc1cccc(CO/N=C(/c2cccc(F)c2F)c2noc(=O)n2C)n1 [Example 420] | 3.55 [a]
48 | Cn1c(/C(=N\OCc2csc(NC(=O)C3COc4ccccc4O3)n2)c2ccccc2Cl)noc1=O (stereo not drawn) [Example 442] | 3.73 [a]
49 | CCCCCOC(=O)Nc1cccc(CO/N=C(/c2ccccc2F)c2noc(=O)n2C)n1 [Example 444] | 4.34 [a]
50 | CCCC(C)C(=O)Nc1cccc(CO/N=C(/c2ccccc2F)c2noc(=O)n2C)n1 (stereo not drawn) [Example 449] | 3.73 [a]
51 | CC(C)(C)OC(=O)Nc1cccc(CON=C(c2noc(=O)[nH]2)c2cccc(F)c2F)n1 [Example 460] | 3.76 [a]
52 | CCCCCC(=O)Nc1cccc(CO/N=C(/c2cccc(F)c2F)c2noc(=O)n2C)n1 [Example 464] | 3.92 [a]
53 | CCCCC(=O)Nc1cccc(CO/N=C(/c2ccccc2F)c2noc(=O)n2C)n1 [Example 480] | 3.44 [a]
54 | CCCCC(=O)Nc1nc(CO/N=C(/c2ccccc2Cl)c2noc(=O)n2C)cs1 [Example 481] | 3.53 [a]
